“And” between values parts separate entries of the source, which are not always exact repeats. Equal values may be shown once. Toxic doses and inconclusive results are not listed. Rule as the data show it: active = T/C of 150% or more; inactive = T/C below 125%.
System: L1210 leukemia ip in BDF1 mice, survival T/C
Assay: NCI In Vivo Anticancer Drug Screen. Data for tumor model L1210 Leukemia (intraperitoneal) in B6D2F1 (BDF1) mice
Settings: endpoint: mean survival time, higher = longer survival
Procedure, shortened: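 Transplantable tumor model; survival measured in treated vs vehicle control mice. Value = treated/control.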

[1] = dose: 100.0 mg/kg/injection, schedule: Q01DX001 (ip), vehicle: saline
[2] = dose: 200.0 mg/kg/injection, schedule: Q01DX001 (ip), vehicle: saline
[3] = dose: 400.0 mg/kg/injection, schedule: Q01DX001 (ip), vehicle: saline
[4] = dose: 100.0 mg/kg/injection, schedule: Q01DX009 (ip), vehicle: Klucel (hydroxypropylcellulose) (HPC)
[5] = dose: 100.0 mg/kg/injection, schedule: Q04DX003 (ip), vehicle: Klucel (hydroxypropylcellulose) (HPC)
[6] = dose: 200.0 mg/kg/injection, schedule: Q01DX009 (ip), vehicle: Klucel (hydroxypropylcellulose) (HPC)
[7] = dose: 200.0 mg/kg/injection, schedule: Q04DX003 (ip), vehicle: Klucel (hydroxypropylcellulose) (HPC)
[8] = dose: 400.0 mg/kg/injection, schedule: Q01DX009 (ip), vehicle: Klucel (hydroxypropylcellulose) (HPC)
[9] = dose: 400.0 mg/kg/injection, schedule: Q04DX003 (ip), vehicle: Klucel (hydroxypropylcellulose) (HPC)
[10] = dose: 100.0 mg/kg/injection, schedule: Q01DX001 (ip), vehicle: Klucel (hydroxypropylcellulose) (HPC)
[11] = dose: 200.0 mg/kg/injection, schedule: Q01DX001 (ip), vehicle: Klucel (hydroxypropylcellulose) (HPC)
[12] = dose: 100.0 mg/kg/injection, schedule: Q04DX002 (ip), vehicle: Klucel (hydroxypropylcellulose) (HPC)
[13] = dose: 200.0 mg/kg/injection, schedule: Q04DX002 (ip), vehicle: Klucel (hydroxypropylcellulose) (HPC)
[14] = dose: 100.0 mg/kg/injection, schedule: Q04DX003 (ip), vehicle: saline with Tween-80
[15] = dose: 200.0 mg/kg/injection, schedule: Q04DX003 (ip), vehicle: saline with Tween-80
[16] = dose: 400.0 mg/kg/injection, schedule: Q04DX003 (ip), vehicle: saline with Tween-80

Measured: T/C

CCC(O)C1CCCO1 (stereo not given)
inactive: dose: 25.0 mg/kg/injection, schedule: Q04DX002 (ip), vehicle: saline 103 % of control | dose: 50.0 mg/kg/injection, schedule: Q04DX002 (ip), vehicle: saline 92 % of control | [1] 104 % of control | dose: 100.0 mg/kg/injection, schedule: Q04DX002 (ip), vehicle: saline 103 % of control | [2] 95 % of control | [3] 93 % of control

O=C(N/N=C/c1ccc2c(c1)OCO2)c1ccccc1
inactive: [4] 93 % of control | [5] 101 % of control | [6] 96 % of control | [7] 104 % of control | [8] 86 % of control | [9] 98 % of control

CC(=O)Oc1c(OC(C)=O)c(-c2c(C)cc(C)c(Br)c2C)c(OC(C)=O)c(OC(C)=O)c1-c1c(C)cc(C)c(Br)c1C
inactive: [4] 103 % of control | [6] 97 % of control | [8] 103 % of control

O=C1OC2C(I)C3CCC2C1C3 (stereo not given)
inactive: dose: 100.0 mg/kg/injection, schedule: Q01DX009 (ip), vehicle: saline 98 % of control | dose: 100.0 mg/kg/injection, schedule: Q04DX003 (ip), vehicle: saline 102 % of control | dose: 200.0 mg/kg/injection, schedule: Q01DX009 (ip), vehicle: saline 102 % of control | dose: 200.0 mg/kg/injection, schedule: Q04DX003 (ip), vehicle: saline 105 % of control | dose: 400.0 mg/kg/injection, schedule: Q01DX009 (ip), vehicle: saline 98 % of control | dose: 400.0 mg/kg/injection, schedule: Q04DX003 (ip), vehicle: saline 98 % of control

CCc1c(N)nc(N)[nH]c1=O
inactive: dose: 44.0 mg/kg/injection, schedule: Q01DX001 (ip), vehicle: Klucel (hydroxypropylcellulose) (HPC) 102 % of control | dose: 67.0 mg/kg/injection, schedule: Q01DX001 (ip), vehicle: Klucel (hydroxypropylcellulose) (HPC) 96 % of control | [10] 98 % of control | dose: 150.0 mg/kg/injection, schedule: Q01DX001 (ip), vehicle: Klucel (hydroxypropylcellulose) (HPC) 96 % of control | [11] 104 % of control

COC(=O)C(OC)(OC)C(OC)OC
inactive: [1] 97 % of control | [2] 103 % of control | [3] 106 % of control

CC(NC(=O)NC(C)(C)C)c1ccccc1 (stereo not given)
inactive: [12] 102 % of control | [13] 105 % of control | dose: 400.0 mg/kg/injection, schedule: Q04DX002 (ip), vehicle: Klucel (hydroxypropylcellulose) (HPC) 121 % of control

NC(N)=N/N=C/C(=N\N=C(N)N)C(O)CO (stereo not given)
inactive: dose: 75.0 mg/kg/injection, schedule: Q01DX001 (ip), vehicle: saline 109 % of control and 100 % of control | dose: 150.0 mg/kg/injection, schedule: Q01DX001 (ip), vehicle: saline 105 % of control and 106 % of control | dose: 300.0 mg/kg/injection, schedule: Q01DX001 (ip), vehicle: saline 101 % of control and 105 % of control

COc1ccc(OCC(=O)O)c(C=O)c1
inactive: dose: 100.0 mg/kg/injection, schedule: Q01DX009 (ip), vehicle: saline with Tween-80 95 % of control | [14] 115 % of control | dose: 200.0 mg/kg/injection, schedule: Q01DX009 (ip), vehicle: saline with Tween-80 93 % of control | [15] 96 % of control | dose: 400.0 mg/kg/injection, schedule: Q01DX009 (ip), vehicle: saline with Tween-80 91 % of control | [16] 106 % of control

CCCCCCCCCCCCCCC(=O)[O][Hg][c]1ccccc1
inactive: dose: 75.0 mg/kg/injection, schedule: Q01DX001 (ip), vehicle: steriod suspending solution 100 % of control

c1ccc2c(c1)Sc1ccccc1N2C[C@H]1CCCN2CCCC[C@H]12
inactive: dose: 75.0 mg/kg/injection, schedule: Q01DX009 (ip), vehicle: Klucel (hydroxypropylcellulose) (HPC) 102 % of control | dose: 75.0 mg/kg/injection, schedule: Q04DX003 (ip), vehicle: Klucel (hydroxypropylcellulose) (HPC) 102 % of control | dose: 150.0 mg/kg/injection, schedule: Q01DX009 (ip), vehicle: Klucel (hydroxypropylcellulose) (HPC) 91 % of control | dose: 150.0 mg/kg/injection, schedule: Q04DX003 (ip), vehicle: Klucel (hydroxypropylcellulose) (HPC) 97 % of control | dose: 300.0 mg/kg/injection, schedule: Q01DX009 (ip), vehicle: Klucel (hydroxypropylcellulose) (HPC) 89 % of control | dose: 300.0 mg/kg/injection, schedule: Q04DX003 (ip), vehicle: Klucel (hydroxypropylcellulose) (HPC) 102 % of control

CCCCNc1nc(N)nc2c1nnn2C1OC(CO)C(O)C1O (stereo not given)
inactive: [1] 107 % of control | [2] 101 % of control | [3] 107 % of control

Cc1ccc(C2CCCCC2OS(=O)(=O)c2ccc(C)cc2)cc1 (stereo not given)
inactive: dose: 100.0 mg/kg/injection, schedule: Q01DX001 (ip), vehicle: steriod suspending solution 102 % of control | dose: 200.0 mg/kg/injection, schedule: Q01DX001 (ip), vehicle: steriod suspending solution 95 % of control | dose: 400.0 mg/kg/injection, schedule: Q01DX001 (ip), vehicle: steriod suspending solution 109 % of control

O=C(Nc1cccc(F)c1)N(C1CCCCC1)C1CCCCC1
inactive: dose: 6.25 mg/kg/injection, schedule: Q01DX009 (ip), vehicle: gum acacia 96 % of control | dose: 12.5 mg/kg/injection, schedule: Q01DX009 (ip), vehicle: gum acacia 100 % of control | dose: 50.0 mg/kg/injection, schedule: Q01DX009 (ip), vehicle: gum acacia 89 % of control | dose: 400.0 mg/kg/injection, schedule: Q01DX009 (ip), vehicle: gum acacia 91 % of control

CC(/C=N/O)=C1C=CC=C1
inactive: [10] 94 % of control | [4] 98 % of control | [5] 102 % of control | [11] 92 % of control | [6] 100 % of control | [7] 98 % of control | dose: 400.0 mg/kg/injection, schedule: Q01DX001 (ip), vehicle: Klucel (hydroxypropylcellulose) (HPC) 97 % of control | [8] 105 % of control | [9] 102 % of control

O=C(CCCO)NCCS(=O)c1ccccc1 (stereo not given)
inactive: dose: 100.0 mg/kg/injection, schedule: Q04DX002 (ip), vehicle: saline with Tween-80 107 % of control | dose: 200.0 mg/kg/injection, schedule: Q04DX002 (ip), vehicle: saline with Tween-80 101 % of control | dose: 400.0 mg/kg/injection, schedule: Q04DX002 (ip), vehicle: saline with Tween-80 111 % of control

CC(=O)Oc1ccc(N2CC=C(c3ccccc3)CC2)cc1
inactive: [12] 89 % of control | [13] 95 % of control

CC(=O)c1ccc(C(=O)NCCCc2c(C)nc(N)[nH]c2=O)cc1
inactive: [14] 95 % of control | [15] 90 % of control | [16] 90 % of control

COC(=O)c1ccccc1NC(=O)Nc1ccc(F)cc1
inactive: [4] 90 % of control | [6] 90 % of control | [8] 90 % of control

CCC[N+](CCC)(CCC)Cc1ccccc1
inactive: dose: 5.0 mg/kg/injection, schedule: Q01DX001 (ip), vehicle: saline 108 % of control | dose: 10.0 mg/kg/injection, schedule: Q01DX001 (ip), vehicle: saline 98 % of control | dose: 20.0 mg/kg/injection, schedule: Q01DX001 (ip), vehicle: saline 96 % of control

N#CCc1cc2c(cc1[N+](=O)[O-])OCO2
inactive: [1] 97 % of control | [2] 87 % of control | [3] 97 % of control

CCC(=O)OCc1ccc(Cl)cc1
inactive: [4] 97 % of control | [5] 101 % of control | [6] 95 % of control | [7] 96 % of control | [8] 94 % of control | [9] 95 % of control

Reference: PubChem BioAssay AID248 (DTP/NCI, 2004)
